The results in this text go back to patent US20250177533A1, “PHOTODYNAMIC THERAPY AND DIAGNOSIS” (RMW CHO Group Limited, priority 2021, published 2025).

Where two headings read alike, the source gives them in different places.

The test system of data set [1] is Human ovarian cancer cell line SKOV3. The note with it: 24 h.
Data set [2] shares this test system. As to the kind of experiment: Phototoxicity in SKOV3 cells (660 nm laser or LED, AlamarBlue viability). The note with it: Homo sapiens, SK-OV-3, light or radiation study, SKOV3, 24 h uptake, viability 24 h later. Format: cell-based. The source says:
All data are shown as mean±SD (where appropriate).
Media was then replaced with fresh media containing AlamarBlue, and % viable cells remaining assessed as above. […] All measurements were made in quadruplicate.

Setting [3] is: 660 nm laser 50 mW/cm^2 for 5 mins (15 J/cm^2), read-out: Phototoxicity μM (IC90).
Setting [4] is: 660 nm LED panel 50 mW/cm^2 for 5 mins (15 J/cm^2), read-out: Phototoxicity μM (IC90), measured by LED.

As to `CCC1=C(C)c2cc3[nH]c(cc4nc(c(C)c5cc(C)c(cc1n2)[nH]5)[C@@H](CCC(=O)N(C)CCCS[C@@H]1O[C@H](CO)[C@@H](O)[C@H](O)[C@H]1O)[C@@H]4C)c(C)c3C(C)O` (stereo partly drawn) [Compound 26, 13-hydroxyethylphyllochlorin-β-D-1-thioglucose-N-methylpropylamide], the “Dark toxicity μM (IC10)” value in data set [1] came out at 21.550 µM. The IC90 (commonly the concentration at which the effect reaches the 90% level) in data set [2] (setting [3]) came to 0.248 µM.

On to `CCC1=C(C)c2cc3[nH]c(cc4nc(c(C)c5cc(C)c(cc1n2)[nH]5)[C@@H](CCC(=O)O)[C@@H]4C)c(C)c3C(C)O` (stereo partly shown) [Compound 27, phyllochlorin 13-(ethyl-1-alcohol)], for which the “Dark toxicity μM (IC10)” value in data set [1] turned out to be 10.520 µM. For the same compound, the IC90 in data set [2] (setting [3]) came to 0.397 µM.

For the compound `CCC1=C(C)c2cc3[nH]c(cc4nc(c(C)c5cc(C)c(cc1n2)[nH]5)[C@@H](CCC(=O)OC)[C@@H]4C)c(C)c3C(C)OCCC[n+]1ccc(C)cc1` (stereo partly shown) [Compound 28], in data set [1], the “Dark toxicity μM (IC10)” value amounted to 4.877 µM. In addition, in data set [2] (setting [3]), the IC90 worked out at 0.003 µM.

With `CCC1=C(C)c2cc3[nH]c(cc4nc(c(C)c5cc(C)c(cc1n2)[nH]5)[C@@H](CCC(=O)OC)[C@@H]4C)c(C)c3COC(=O)NCCOC` [Compound 29, phyllochlorin methyl ester 13-(2-methoxyethyl)carbamate], the “Dark toxicity μM (IC10)” value in data set [1] came to 30.000 µM. Moreover, the IC90 in data set [2] (setting [4]) was found to be 0.0867 µM.

In the case of `CCC1=C(C)c2cc3[nH]c(cc4nc(c(C)c5cc(C)c(cc1n2)[nH]5)[C@@H](CCC(=O)OC)[C@@H]4C)c(C)c3C=O` [Compound 30, phyllochlorin 13-formyl methyl ester], the “Dark toxicity μM (IC10)” value in data set [1] is 45.760 µM. In addition, the IC90 in data set [2] (setting [3]) was 2.27 µM.

As to `CCC1=C(C)c2cc3[nH]c(cc4nc(c(C)c5cc(C)c(cc1n2)[nH]5)[C@@H](CCCO)[C@@H]4C)c(C)c3CO` [Compound 32, phyllochlorin 13-hydroxymethyl-3-hydroxypropyl], the “Dark toxicity μM (IC10)” value in data set [1] amounted to 30.850 µM. In data set [2] (setting [3]), the IC90 came out at 0.0724 µM.

As for `CCC1=C(C)c2cc3[nH]c(cc4nc(c(C)c5cc(C)c(cc1n2)[nH]5)[C@@H](CCCO[C@@H]1O[C@H](CO)[C@@H](O)[C@H](O)[C@H]1O)[C@@H]4C)c(C)c3CO[C@@H]1O[C@H](CO)[C@@H](O)[C@H](O)[C@H]1O` [Compound 33, phyllochlorin 13-hydroxymethyl-3-hydroxypropyl-bis-β-D-glucoside ether], in data set [1], the “Dark toxicity μM (IC10)” value stood at 14.080 µM. Also, the IC90 in data set [2] (setting [3]) was found to be 0.765 µM.

With `CCC1=C(C)c2cc3[nH]c(cc4nc(c(C)c5cc(C)c(cc1n2)[nH]5)[C@@H](CCCO)[C@@H]4C)c(C)c3CO[C@@H]1O[C@H](CO)[C@@H](O)[C@H](O)[C@H]1O` [Compound 35, phyllochlorin 3-hydroxypropyl-13-hydroxymethyl-β-D-glucoside ether], the “Dark toxicity μM (IC10)” value in data set [1] came out at 1.651 µM. Also, the IC90 in data set [2] (setting [3]) came out at 0.0467 µM.

In the case of `CCC1=C(C)c2cc3[nH]c(cc4nc(c(C)c5cc(C)c(cc1n2)[nH]5)[C@@H](CCC(=O)OC)[C@@H]4C)c(C)c3COC(=O)NCCCCCC[P+](c1ccccc1)(c1ccccc1)c1ccccc1` [Compound 39, phyllochlorin methyl ester 13-(6-(triphenylphosphonium bromide)hexyl)carbamate], the “Dark toxicity μM (IC10)” value in data set [1] is 6.403 µM. Also, the concentration for an effect of 90% (IC90) in data set [2] (setting [4]) was 0.0018 µM.

Take `CCC1=C(C)c2cc3[nH]c(cc4nc(c(C)c5cc(C)c(cc1n2)[nH]5)[C@@H](CCC(=O)N(C)CCOCCOCCOC)[C@@H]4C)c(C)c3CO` [Compound 42, phyllochlorin 13-hydroxymethyl N-methyl-N-3,6,9-trioxadecyl propylamide]: in data set [1], the “Dark toxicity μM (IC10)” value was found to be 4.252 µM. The IC90 in data set [2] (setting [4]) was 0.245 µM.

In the case of `CCC1=C(C)c2cc3[nH]c(cc4nc(c(C)c5cc(C)c(cc1n2)[nH]5)[C@@H](CCC(=O)N(C)CCOCCOCCOC)[C@@H]4C)c(C)c3COC(=O)NCCCCCC[P+](c1ccccc1)(c1ccccc1)c1ccccc1` [Compound 43, phyllochlorin 13-(6-(triphenylphosphonium bromide)hexyl)carbamate N-methyl-N-3,6,9-trioxadecyl propylamide], in data set [1], the “Dark toxicity μM (IC10)” value was found to be 0.5889 µM. Further, the IC90 in data set [2] (setting [4]) amounted to 0.0042 µM.
